According to patent US8846873B2, “Antibodies directed to GPNMB and uses thereof” (Celldex Therapeutics, Inc., priority 2004, dated 2014):
Entries after “also recorded” stand apart in the source; their conditions may differ.

Key:
[1] = test system: SK-MEL-2 melanoma xenografts; test: Human SK-MEL-2 melanoma xenograft in athymic mice; assay type: in vivo
Experimental: Test Animals: Five- to 6-week old athymic mice (CD-1 nu/nu females), used for human tumor xenografts, were obtained from Harlan Laboratories (Indianapolis, Ind.). Animals were housed in specific pathogen-free conditions, according to the guidelines of the Association for Assessment and Accreditation of Laboratory Animal Care International (AAALAC International). Test animals were provided pelleted food and water ad libitum and kept in a room with conditioned ventilation (HVAC), temperature (22°±2° C.), relative humidity (55%±15%), and photoperiod (12 hr). All studies were carried out with approved institutional animal care and use protocols.
Human Melanoma Xenograft Models. The tumor inhibitory activity of the CR011-MMAE immunoconjugate was measured in an anti-tumor xenograft model using athymic mice, according to published methods (see Geran et al., Cancer Chemother. Rep. 3:1-104 (1972)). […] When tumors became established (10-20 days), the animals were pair-matched into groups (n=6 mice/group), and treatment was administered by intravenous injection (tail vein).
The SK-MEL-2 human melanoma (ATCC #HTB-68) was derived from a metastatic site (skin of thigh) of a person with malignant melanoma, and the SK-MEL-5 human melanoma (ATCC #HTB-70) was derived from a metastatic site (axillary lymph node) of a person with malignant melanoma (see Fogh et al., J. Natl. Cancer Inst. 59: 221-226 (1977)). Both cell lines were obtained from the American Type Culture Collection.
The effects of treatment were monitored by repetitive tumor measurements across 2 diameters with Vernier calipers; tumor size (in mg) was calculated using a standard formula, (W^2×L)/2, assuming a specific gravity of 1.0. Tumor size and body weights were assessed twice weekly. Mice were examined daily, however, and moribund animals were humanely euthanized if clinical indications of excessive pain or distress were noted (i.e., prostration, hunched posture, paralysis/paresis, distended abdomen, ulcerations, abscesses, seizures, and/or hemorrhages). Animals with tumors exceeding 2,000 mg were removed from the study and euthanized humanely.
No apparent or statistically significant anti-tumor effects were observed. […] In preliminary studies, tumor regression was complete and was not followed by regrowth of the tumor despite lengthy observation periods (up to 200 days).

[2] = test system: SK-Mel-2 cells; test: Clonogenic assay after GPNMB siRNA transfection; assay type: cell-based, human
Experimental: SK-MeI-2 cells are transfected with 50 nM of control siRNA or siRNA targeting GPNMB. A. Cell lysates are prepared from the transfected SK-Mel-2 cells 2 and 4 days post-transfection and the expression of GPNMB (upper panel) or actin (lower panel) is determined by immunoblotting. Lane 1: Mock (oligofectamine) transfection. Lane 2: Control siRNA transfection. Lane 3: GPNMB siRNA transfection. B. Flow cytometry analysis of GPNMB expression 2 and 4 days after transfection. SK-Mel-2 cells are transfected with mock, control siRNA or GPNMB siRNA as indicted in the Materials and Methods. C. […] The surviving fraction is normalized to the untreated control and expressed as a percentage of control using GraphPad Prism graphing software. Each treatment is performed in triplicate. A representative experiment from two independent studies is shown.
(§1) Cells were plated in 96-well plates and allowed to recover overnight. […] The cells were then transferred into 6-well plates and allowed to form colonies. Colonies were stained with Giemsa stain (Sigma) and counted. The surviving cell fractions were calculated based upon the ratio of the treated sample and the untreated control. The results were expressed as a percentage of control using GraphPad Prism Version 4 software.
The amount of GPNMB expression was reduced for at least 7 days after transfection.

[3] = test system: SK-Mel-2 cells; test: Cell cycle analysis (BrdU / propidium iodide flow cytometry); assay type: cell-based, human; conditions: for % G1 / % G2/M / % S-phase / % Sub-G1: SK-Mel-2, 24 hour
Experimental: (§2) Briefly, cells were pulsed at the indicated times with 30 μM of bromodeoxyuridine (BrdU, Sigma) for 30 min, harvested, fixed and permeabilized in methanol. Nascent DNA synthesis was detected by anti-bromodeoxyuridine-FITC (BD Biosciences, San Jose, Calif.) staining. Total DNA content was detected using propidium iodide (PI, Sigma). For apoptosis analysis, cells were treated as above and labeled with Annexin V-FITC followed by propidium iodide exclusion using the Annexin V-FITC Apoptosis Detection kit I (BD PharMingen, San Diego, Calif.) according to the manufacturer's protocols. Flow cytometry (as described in the previous Example) was used to assay both cell cycle and apoptosis studies.
(§3) DNA synthesis and cell cycle progression were determined by flow cytometry (Table 52).

[4] = test system: TK-10 cells; test: as above; assay type: cell-based, human; conditions: for % G1 / % G2/M / % S-phase / % Sub-G1: TK-10, 24 hour
Experimental: as §2, §3

[5] = test system: SK-Mel-2 cells; test: Apoptosis analysis (Annexin V-FITC / propidium iodide); assay type: cell-based, human; conditions: for % AnnV+/PI+ UR / % AnnV+/PI− LR / % AnnV−/PI+ UL: SK-Mel-2, 48 hour
Experimental: as §2
(§4) To investigate this possibility, analysis of apoptosis using Annexin-V surface binding and loss of propidium iodide (PI) exclusion was performed.

[6] = test system: TK-10 cells; test: as above; assay type: cell-based, human; conditions: TK-10, 48 hour
Experimental: as §2, §4

[7] = test system: SF-539; test: Clonogenic assay, CR011-vcMMAE in vitro growth inhibition; assay type: cell-based, human
Experimental: as §1

[8] = test system: U-118-MG; test: as above; assay type: cell-based, human
Experimental: as §1

[9] = test system: XF-498; test: as above; assay type: cell-based, human
Experimental: as §1

[10] = test system: SNB-78; test: as above; assay type: cell-based, human
Experimental: as §1

CR011-vcMMAE: anti-GPNMB antibody 1.15.1 coupled to monomethylauristatin E via protease-sensitive valine-citrulline linker
complete regressors ([1]; 2 mg/kg cumulative dose, all dosing intervals): 13%
proportions of complete regressions (animals) ([1]; 8 mg/kg cumulative dose, 5 groups of 6 animals): 28/30
complete regressions ([1]; 8 mg/kg cumulative dose, all dosing intervals): 93%
tumor response ([1]; CR011-ONC-1, CR011-vcMMAE 5 mg/kg/treatment i.v. q4d x4, components at doses identical to those in the immunoconjugate): Tumor growth inhibition and complete regression; also recorded: no discernible tumor was detected in all 6 of the test animals
abnormal treatment effects on gross examination ([1]; Study N-386): no abnormal treatment effects
time after treatment commenced to significant treatment effects ([1]; Study N-386, 20, 10, 5 or 2.5 mg/kg i.v. q4d x4, P≦0.014): 4 days
anti-tumor effect ([1]; Study N-386, i.v., CR011-vcMMAE 20, 10, 5 or 2.5 mg/kg q4d x4, vinblastine […] q4d x4): tumors rapidly diminished in size for the majority of the test animals
effects of treatment on body weight or weight gain ([1]; Study N-386, twice weekly body weight): no observable or statistically significant effects
complete regressions ([1]; cumulative dose of 32 mg/kg, all dosing intervals): 100%
schedule dependency of anti-tumor effects ([1]; dosing intervals 0, 1, 4, 8, 16 days): not schedule-dependent
re-growth of tumors that regressed completely ([1]; observation period >200 days): did not re-grow
sensitivity to growth-inhibitory activity following siRNA-mediated GPNMB knockdown [2]: less sensitive
decreased percentage of cells in G1 and S-phase compared to untreated cells ([3]; 1000 ng/mL, 24 hrs): 10%
increased percentage of cells in G2/M compared to untreated cells ([3]; 1000 ng/mL, 24 hrs): 18.6%
increased percentage of cells in G2/M ([3]; 1000 ng/mL, 48 hr): 24%
reduced percentage of cells in G1 and S-phase ([3]; 1000 ng/mL, 48 hr): 11%
% G1 ([3]; 100 ng/mL): 56.0%
% G2/M ([3]; 100 ng/mL): 12.4%
% S-phase ([3]; 100 ng/mL): 26.9%
% Sub-G1 ([3]; 100 ng/mL): 0.2%
% G1 ([3]; 1000 ng/mL): 43.7%
% G2/M ([3]; 1000 ng/mL): 28.5%
% S-phase ([3]; 1000 ng/mL): 20.0%
% Sub-G1 ([3]; 1000 ng/mL): 1.1%
cycling of GPNMB-negative cells ([4]; 1000 ng/mL): did not affect the cycling
% G1 ([4]; 100 ng/mL): 51.1%
% G2/M ([4]; 100 ng/mL): 4.5%
% S-phase ([4]; 100 ng/mL): 35.1%
% Sub-G1 ([4]; 100 ng/mL): 0.7%
% G1 ([4]; 1000 ng/mL): 52.6%
% G2/M ([4]; 1000 ng/mL): 3.9%
% S-phase ([4]; 1000 ng/mL): 34.2%
% Sub-G1 ([4]; 1000 ng/mL): 0.8%
increase in mono-stained (Annexin-V+/PI−) cells ([5]; 1000 ng/mL, 48 hr): 11%
% AnnV+/PI+ UR ([5]; 100 ng/mL): 0.40%
% AnnV+/PI− LR ([5]; 100 ng/mL): 9.37%
% AnnV−/PI+ UL ([5]; 100 ng/mL): 0.30%
% AnnV+/PI+ UR ([5]; 1000 ng/mL): 2.02%
% AnnV+/PI− LR ([5]; 1000 ng/mL): 13.83%
% AnnV−/PI+ UL ([5]; 1000 ng/mL): 2.08%
% AnnV+/PI+ UR ([6]; 100 ng/mL): 0.57%
% AnnV+/PI− LR ([6]; 100 ng/mL): 1.00%
% AnnV−/PI+ UL ([6]; 100 ng/mL): 0.71%
% AnnV+/PI+ UR ([6]; 1000 ng/mL): 0.83%
% AnnV+/PI− LR ([6]; 1000 ng/mL): 0.56%
% AnnV−/PI+ UL ([6]; 1000 ng/mL): 0.86%
IC50 [7]: ~1.05 µg/mL
IC50 [8]: ~1.25 µg/mL
IC50 [9]: approximately 215 ng/mL
IC50 [10]: ~0.45 µg/mL
